Blank lines part the entries; values can stand above or below the molecule they belong to. Residues, ends and D or L forms follow the SMILES beside them. *: point of attachment. CF3 = FC(F)(F)*; Moc = COC(=O)*
Experiments:
[1] = target: T1, Neutrophil elastase (Homo sapiens) (UniProt P08246); experiment: In vitro inhibition of human whole blood (HWB) elastase at a concentration of 10 uM
T1 sequence (whole entry): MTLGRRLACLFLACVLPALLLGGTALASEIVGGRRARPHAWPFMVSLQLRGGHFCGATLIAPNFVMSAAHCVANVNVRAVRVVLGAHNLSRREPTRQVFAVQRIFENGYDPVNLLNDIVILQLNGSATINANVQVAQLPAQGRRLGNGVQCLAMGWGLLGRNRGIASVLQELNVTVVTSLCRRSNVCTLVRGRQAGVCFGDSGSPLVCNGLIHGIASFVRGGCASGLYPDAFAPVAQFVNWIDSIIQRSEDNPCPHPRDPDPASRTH

[2] = target: T2, Neutrophil elastase (Homo sapiens, UniProt P08246); experiment: In vitro inhibitory activity in human whole blood (HWB) elastase at a concentration of 10; format: tissue-based
T2 sequence (P08246 whole entry): T1 sequence (whole entry)

[3] = target: T1, Neutrophil elastase (Homo sapiens); experiment: In vitro inhibition of human whole blood (HWB) elastase at a concentration of 10 uM except in buffer
[4] = target: T1, Neutrophil elastase (Homo sapiens); experiment: In vitro percent inhibition of human whole blood (HWB) elastase at a concentration of 10 uM except in plasma; format: tissue-based
[5] = target: T2, Neutrophil elastase; experiment: In vitro inhibitory activity against human neutrophil elastase (HNE)
[6] = Bioavailability after po administration at 4 mg/kg in hamster; format: ADME, organism-based, Cricetulus griseus; conditions: chinese hamster, in vivo
[7] = Volume distribution after iv administration at 4 mg/kg in hamster; format: ADME, organism-based; parameters: dose 4 mg/kg, route intravenous; conditions: cricetinae, in vivo
[8] = tested on: Hamster; experiment: Plasma clearance after iv administration at 4 mg/kg in hamster; format: ADME, organism-based; parameters: dose 4 mg/kg, route intravenous; conditions: cricetinae, in vivo
[9] = target: T1, Neutrophil elastase (Homo sapiens); experiment: Compound was evaluated in vivo for the inhibition of elastase in hamster bronchoalveolar lavage (BAL) 6 hour after an intratracheal dose of IL-8 at a concentration 20 mg/kg; format: organism-based; parameters: dose 20 mg/kg; conditions: Cricetulus griseus; Lung
[10] = Solubility in water was evaluated.; format: physicochemical
[11] = Half life after iv administration at 4 mg/kg in hamster; format: ADME, organism-based; parameters: dose 4 mg/kg, route intravenous; conditions: cricetinae, in vivo
[12] = target: T1, Neutrophil elastase (Homo sapiens); experiment: Compound was evaluated in vivo for the inhibition of elastase in hamster bronchoalveolar lavage (BAL) 6 hour after an intratracheal dose of IL-8 at a concentration 10 mg/kg; format: organism-based; parameters: dose 10 mg/kg; conditions: Cricetulus griseus; Lung
[13] = target: T1, Neutrophil elastase (Homo sapiens); experiment: Compound was evaluated in vivo for the inhibition of elastase in hamster bronchoalveolar lavage (BAL) 6 hour after an intratracheal dose of IL-8 at a concentration 40 mg/kg; format: organism-based; parameters: dose 40 mg/kg; conditions: Cricetulus griseus; Lung
[14] = target: T2, Neutrophil elastase; experiment: In vitro inhibitory activity in human whole blood (HWB) elastase; format: tissue-based
[15] = Half life after po administration of 10 mg/kg in hamster; format: ADME, organism-based; parameters: dose 10 mg/kg, route oral; conditions: cricetinae, in vivo
[16] = tested on: Hamster; experiment: Plasma clearance after iv administration at 3 mg/kg in hamster; format: ADME, organism-based; parameters: dose 3 mg/kg, route intravenous; conditions: cricetinae, in vivo
[17] = target: T1, Neutrophil elastase (Homo sapiens); conditions: Cricetulus griseus; Liver; Microsome; 10 mg/kg
Description: Compound was evaluated for the inhibition of elastase in hamster liver microsomes at a concentration of 10 mg/kg

[18] = target: T1, Neutrophil elastase (Homo sapiens); conditions: Cricetulus griseus; Liver; Microsome; 20 mg/kg
Description: Compound was evaluated for the inhibition of elastase in hamster liver microsomes at a concentration of 20 mg/kg

[19] = Half life after iv administration at 3 mg/kg in hamster; format: ADME, organism-based; parameters: dose 3 mg/kg, route intravenous; conditions: cricetinae, in vivo
[20] = Bioavailability after po administration of 10 mg/kg in hamster; format: ADME, organism-based, Cricetulus griseus; conditions: chinese hamster, in vivo
[21] = Volume distribution after iv administration at 3 mg/kg in hamster; format: ADME, organism-based; parameters: dose 3 mg/kg, route intravenous; conditions: cricetinae, in vivo

inhibition [1]: 98%
Compound: C=CC[C@H]1C(=O)N(S(C)(=O)=O)[C@H]2CCN(C(=O)OCc3ccccc3)[C@H]12

IC50 [2]: 0.45 nM
Compound: CCC[C@@H](NC(=O)N1C(=O)C(CC)(CC)[C@@H]1Oc1ccc(C(=O)N2CCN(C)CC2)cc1)c1ccc2c(c1)OCO2

inhibition [3]: 92% | inhibition [4]: 23%
Compound: C=CC[C@H]1C(=O)N(S(=O)(=O)c2ccc3ccccc3c2)[C@H]2CCN(C(=O)OCc3ccccc3)[C@H]12

IC50 [5]: > 500 nM
Compound: C=CC[C@H]1C(=O)N[C@H]2CCN(C(=O)OCc3ccccc3)[C@@H]21

bioavailability [6]: 1% | IC50 [5]: 137 nM | Vd [7]: 8.1 L/kg | Clp [8]: 200 mL/min/kg | inhibition [9]: 30% | solubility [10]: > 1000 µg/mL | half-life [11]: 30 min | inhibition [12]: 10% | inhibition [13]: 60%
Compound: CCC[C@H]1C(=O)N(S(=O)(=O)c2ccc3ccccc3c2)[C@H]2CCN(C(=O)CCN3CCCCC3)[C@H]12.Cl

IC50 [5]: 29 nM
Compound: C=CC[C@H]1C(=O)N(CCCCCC)[C@H]2CCN(C(=O)OCc3ccccc3)[C@H]12

IC50 [14]: > 10 nM
Compound: COC(=O)N[C@H](C(=O)N1CCC[C@H]1C(=O)N[C@H](C(=O)C(F)(F)F)C(C)C)C(C)C (Moc-Val-Pro-Val-CF3)

half-life [15]: 30 min | IC50 [5]: 140 nM | Clp [16]: 140 mL/min/kg | inhibition [17]: 41% | inhibition [18]: 76% | half-life [19]: 12 min | solubility [10]: > 1000 µg/mL | bioavailability [20]: 49% | Vd [21]: 2.3 L/kg
Compound: CCC[C@H]1C(=O)N(S(C)(=O)=O)[C@H]2CCN(C(=O)CCN3CCCCC3)[C@H]12.Cl

IC50 [5]: 2 nM
Compound: C=CC[C@H]1C(=O)N(C(=O)OCC)[C@H]2CCN(C(=O)OCc3ccccc3)[C@H]12

IC50 [5]: 31 nM
Compound: C=CC[C@H]1C(=O)N(C(=O)NCC)[C@H]2CCN(C(=O)OCc3ccccc3)[C@H]12
